Reference: patent US11180462B2, “Microbiocidal oxadiazole derivatives” (SYNGENTA PARTICIPATIONS AG, priority 2015, dated 2021)

Legend:
[1] = test system: Puccinia recondita f. Sp. Tritici; assay: Fungicidal activity against Puccinia recondita f. sp. tritici / wheat / leaf disc preventative (brown rust); type: in vivo; conditions: foliar, 200 ppm in the applied formulation, wheat leaf segments, preventative, compared to untreated control leaf disks, read-out: disease control
Method in brief: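 200 ppm spray on wheat cv. Kanzler leaf segments; spore inoculation +1 day; 19° C., 75% rh, 12 h/12 h light cycle; single rating of % control vs untreated at 7 to 9 days.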

Phakopsora Pachyrhizi = assay: Fungicidal activity against Phakopsora pachyrhizi / soybean / leaf disc preventative (Asian soybean rust); type: in vivo; conditions: foliar, 200 ppm in the applied formulation, soybean leaf disks, compared to untreated control leaf disks, read-out: disease control
Method in brief: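 Scored 12 to 14 days post-application as percent control relative to untreated check discs, rust spores were sprayed under the disc one day after compound treatment. Incubation: 20°C, 75% rh, first 24–36 h in darkness, then 12 h daily light; discs kept on water agar.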

[2] = test system: Glomerella lagenarium (Colletotrichum lagenarium); assay: Fungicidal activity against Glomerella lagenarium (Colletotrichum lagenarium) liquid culture / cucumber / preventative (anthracnose); type: cell-based; conditions: Colletotrichum orbiculare; 20 ppm in the applied formulation; liquid culture (PDB), growth inhibition measured photometrically after 3 to 4 days; compared to untreated control; read-out: disease control
Method in brief: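 Percent activity against the untreated check was derived from photometric growth measurements made 2 to 7 days after conidia in potato dextrose broth were combined with compound at 20 ppm. Cultures were kept dark at 24 °C and 96% humidity.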

[3] = test system: Puccinia recondita f. Sp. Tritici; assay: Fungicidal activity against Puccinia recondita f. sp. tritici / wheat / leaf disc curative (brown rust); type: in vivo; conditions: foliar, 24 h, 200 ppm in the applied formulation, wheat leaf segments, curative (applied 1 day after inoculation), compared to untreated control leaf disks, read-out: disease control
Method in brief: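 Curative test on wheat leaf segments (cv. Kanzler) on agar, inoculated with spore suspension and held dark at 19° C, 75% RH; formulated compound in water applied 1 day after inoculation. Incubated at 19° C, 75% RH, 12 h light/12 h dark; percent disease control versus untreated scored 6 to 8 days after application.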

SMILES | melting point [°C] | pest or weed control at 200 ppm [1] [%] | pest or weed control at 200 ppm (Phakopsora Pachyrhizi) [%] | inhibition of growth at 20 ppm [2] [%] | pest or weed control at 200 ppm [3] [%]
CCC(=O)N(C)C(C#N)c1ccc(-c2noc(C(F)(F)F)n2)cc1 (centres unmarked) [Compound 1.611, N-[cyano-[4-[5-(trifluoromethyl)-1,2,4-oxadiazol-3-yl]phenyl]methyl]-N-methyl-propanamide] | 75 to 76 | ≥ 80 | ≥ 80 | ≥ 80 | ≥ 80
CCC(=O)N(Cc1ccc(-c2noc(C(F)(F)F)n2)cc1)C1COC1 [Compound 1.604, N—(Oxetan-3-yl)-N-[[4-[5-(Trifluoromethyl)-1,2,4-Oxadiazol-3-yl]Phenyl]Methyl]Propanamide] | 88.8 to 93.5 | ≥ 80 | ≥ 80 | ≥ 80 | ≥ 80
CCC(=O)NCC(=O)N(Cc1ccc(-c2noc(C(F)(F)F)n2)cc1)OC [Compound 1.793, N-[2-[methoxy-[[4-[5-(trifluoromethyl)-1,2,4-oxadiazol-3-yl]phenyl]methyl]-amino]-2-oxo-ethyl]propanamide] | 115.3 to 117.8 | ≥ 80 |  | ≥ 80 | ≥ 80
O=C(C1CC1)N(O)Cc1ccc(-c2noc(C(F)(F)F)n2)cc1 [Compound 1.607, N-hydroxy-N-[[4-[5-(trifiuoromethyl)-1,2,4-oxadiazol-3-yl]phenyl]methyl]-cyclopropane-carboxamide] | 141.2 to 143.5 | ≥ 80 | ≥ 80 | ≥ 80 | ≥ 80
COCC(=O)N(O)Cc1ccc(-c2noc(C(F)(F)F)n2)cc1 [Compound 1.606, N-hydroxy-2-methoxy-N-[[4-[5-(trifluoromethyl)-1,2,4-oxadiazol-3-yl]phenyl]methyl]-acetamide] | 144.4 to 147.8 | ≥ 80 | ≥ 80 | ≥ 80 | ≥ 80
O=C(C1CC1)N(Cc1ccc(-c2noc(C(F)(F)F)n2)cc1)C1COC1 [Compound 1.605, N-(oxetan-3-yl)-N-[[4-[5-(trifluoromethyl)-1,2,4-oxadiazol-3-yl]phenyl]methyl]-cyclopropane-carboxamide] | 89.5 to 94 | ≥ 80 | ≥ 80 | ≥ 80 | ≥ 80
CON(Cc1ccc(-c2noc(C(F)(F)F)n2)cc1)C(=O)CNC(=O)OC(C)(C)C [Compound 1.787, tert-butyl N-[2-(methoxy-[[4-[5-(trifluoromethyl)-1,2,4-oxadiazol-3-yl]phenyl]methyl]-amino]-2-oxo-ethyl]carbamate] | 80 to 83.1 | ≥ 80 |  | ≥ 80 | ≥ 80
CN(Cc1ccc(-c2noc(C(F)(F)F)n2)cc1)C(=O)CO [Compound 1.593, 2-hydroxy-N-methyl-N-[[4-[5-(trifluoromethyl)-1,2,4-oxadiazol-3-yl]phenyl]methyl]-acetamide] | 54 to 60 | ≥ 80 |  | ≥ 80 | ≥ 80
CON(Cc1ccc(-c2noc(C(F)(F)F)n2)cc1)C(=O)/C=C/c1ccccc1 [Compound 1.5, (E)-N-methoxy-3-phenyl-N-[[4-[5-(trifluoromethyl)-1,2,4-oxadiazol-3-yl]phenyl]methyl]-prop-2-enamide] | 94 to 99 |  | ≥ 80 | ≥ 80 | 
CON(Cc1ccc(-c2noc(C(F)(F)F)n2)cc1)C(=O)CNC(=O)C1CC1 [Compound 1.790, N-[2-[methoxy-[[4-[5-(trifluoro-methyl)-1,2,4-oxadiazol-3-yl]phenyl]methyl]-amino]-2-oxo-ethyl]-cyclopropane-carboxamide] | 135.9 to 138.5 | ≥ 80 |  | ≥ 80 | ≥ 80
CON(Cc1ccc(-c2noc(C(F)(F)F)n2)c(F)c1)C(=O)c1ccccc1Cl [Compound 1.581, 2-chloro-N-[[3-fluoro-4-[5-(trifluoromethyl)-1,2,4-oxadiazol-3-yl]phenyl]methyl]-N-methoxy-benzamide] | 89 to 95 | ≥ 80 | ≥ 80 | ≥ 80 | 

Second part, led by results:

melting point [°C] | SMILES | pest or weed control at 200 ppm [1] [%] | pest or weed control at 200 ppm (Phakopsora Pachyrhizi) [%] | inhibition of growth at 20 ppm [2] [%] | pest or weed control at 200 ppm [3] [%]
113 to 121 | CN(Cc1ccc(-c2noc(C(F)(F)F)n2)cc1)C(=O)NC1CC1 [Compound 3.56, 3-cyclopropyl-1-methyl-1-[[4-[5-(trifluoromethyl)-1,2,4-oxadiazol-3-yl]phenyl]methyl]urea] | ≥ 80 | ≥ 80 | ≥ 80 | ≥ 80
73 to 75.1 | COC(=O)N(O)Cc1ccc(-c2noc(C(F)(F)F)n2)cc1 [Compound 2.24, methyl N-hydroxy-N-[[4-[5-(trifluoromethyl)-1,2,4-oxadiazol-3-yl]phenyl]methyl]-carbamate] | ≥ 80 | ≥ 80 | ≥ 80 | ≥ 80
107 to 110 | CCONC(=O)N(Cc1ccc(-c2noc(C(F)(F)F)n2)cc1)OC [Compound 3.18, 3-ethoxy-1-methoxy-1-[[4-[5-(trifluoromethyl)-1,2,4-oxadiazol-3-yl]phenyl]methyl]urea] | ≥ 80 | ≥ 80 | ≥ 80 | ≥ 80
106 to 109 | CON(Cc1ccc(-c2noc(C(F)(F)F)n2)cc1)C(=O)NC1(C#N)CC1 [Compound 3.47, 3-(1-cyanocyclopropyl)-1-methoxy-1-[[4-[5-(trifluoromethyl)-1,2,4-oxadiazol-3-yl]phenyl]methyl]urea] | ≥ 80 | ≥ 80 | ≥ 80 | ≥ 80
81 to 84 | CON(Cc1ccc(-c2noc(C(F)(F)F)n2)cc1)C(=O)NCC1CC1(F)F (centres unmarked) [Compound 3.103, 3-[(2,2-difluorocyclopropyl)-methyl]-1-methoxy-1-[[4-[5-(trifluoromethyl)-1,2,4-oxadiazol-3-yl]phenyl]methyl]urea] | ≥ 80 |  | ≥ 80 | ≥ 80
77 to 81.4 | CON(Cc1ccc(-c2noc(C(F)(F)F)n2)cc1)C(=O)NCC1CC1 [Compound 3.6, 3-(cyclopropylmethyl)-1-methoxy-1-[[4-[5-(trifluoromethyl)-1,2,4-oxadiazol-3-yl]phenyl]methyl]urea] | ≥ 80 | ≥ 80 | ≥ 80 | ≥ 80
107 to 110 | CON(Cc1ccc(-c2noc(C(F)(F)F)n2)cc1)C(=O)NCC1(O)CC1 [Compound 3.54, 3-[(1-hydroxycyclopropyl)-methyl]-1-methoxy-1-[[4-[5-(trifluoromethyl)-1,2,4-oxadiazol-3-yl]phenyl]methyl]urea] | ≥ 80 |  | ≥ 80 | ≥ 80
97 to 100 | CON(Cc1ccc(-c2noc(C(F)(F)F)n2)cc1)C(=O)NC1COC1 [Compound 3.55, 1-methoxy-3-(oxetan-3-yl)-1-[[4-[5-(trifluoromethyl)-1,2,4-oxadiazol-3-yl]phenyl]methyl]urea] | ≥ 80 | ≥ 80 | ≥ 80 | ≥ 80
50.6 to 53 | CCON(Cc1ccc(-c2noc(C(F)(F)F)n2)cc1)C(=O)OC [Compound 2.5, methyl N-ethoxy-N-[[4-[5-(trifluoromethyl)-1,2,4-oxadiazol-3-yl]phenyl]methyl]-carbamate] |  | ≥ 80 | ≥ 80 | ≥ 80
95 to 98 | CON(Cc1ccc(-c2noc(C(F)(F)F)n2)cc1)C(=O)NCC(F)(F)F [Compound 3.38, 1-methoxy-3-(2,2,2-trifluoroethyl)-1-[[4-[5-(trifluoromethyl)-1,2,4-oxadiazol-3-yl]phenyl]methyl]urea] | ≥ 80 | ≥ 80 | ≥ 80 | ≥ 80
